Test results as given in paper PMC3674138 (Clinical cancer research : an official journal of the …, 2013).
Read-outs that look alike come from different tables or passages of the source.

Key:
clinical [1] = conditions: human, in vivo, 150 mg, AUC0–168
[2] = Unbound vismodegib plasma concentration; assay type: in vivo, human; conditions: for unbound vismodegib concentrations: after daily dosing 150 mg, mean ± SD
[3] = Adverse events at least possibly related to vismodegib during daily dosing; assay type: in vivo, human
[4] = test system: basal cell carcinoma (BCC); conditions: oral 150 mg daily, cited from earlier work
advanced solid tumors = test: Anticancer activity by RECIST 1.1 in advanced solid tumor patients; assay type: in vivo, human
clinical [5] = conditions: human, in vivo, 150 mg, AUC0–24
[6] = high permeability, low solubility; cited from earlier work
[7] = cited from earlier work
[8] = all patients during daily dosing (both groups)
[9] = 46 patients evaluable for response, 150 mg daily

CS(=O)(=O)c1ccc(C(=O)Nc2ccc(Cl)c(-c3ccccn3)c2)c(Cl)c1 [vismodegib]
AUC(0-t) (clinical [1]): 417 µg·h/mL
unbound vismodegib concentrations ([2]; fasting group): 79 ± 53 ng/mL
unbound vismodegib concentrations ([2]; fed group): 103 ± 49 ng/mL
Steady-state unbound drug concentrations as share of total concentrations ([2]; daily dosing, fasting and fed groups): less than 1%
Alopecia, All grades (%) ([3]; Fasting (n=31), 150 mg daily): 4 (13) n (%)
Anorexia, All grades (%) ([3]; Fasting (n=31), 150 mg daily): 9 (29) n (%)
Diarrhea, All grades (%) ([3]; Fasting (n=31), 150 mg daily): 4 (13) n (%)
Dizziness, All grades (%) ([3]; Fasting (n=31), 150 mg daily): 3 (10) n (%)
Dysgeusia, All grades (%) ([3]; Fasting (n=31), 150 mg daily): 8 (26) n (%)
Dyspnea, All grades (%) ([3]; Fasting (n=31), 150 mg daily): 3 (10) n (%)
Fatigue, All grades (%) ([3]; Fasting (n=31), 150 mg daily): 11 (35) n (%)
Fatigue, Grade 3 (%) ([3]; Fasting (n=31), 150 mg daily): 2 (6) n (%)
Hyperglycemia, All grades (%) ([3]; Fasting (n=31), 150 mg daily): 2 (6) n (%)
Hyperkalemia, All grades (%) ([3]; Fasting (n=31), 150 mg daily): 1 (3) n (%)
Hypophosphatemia, All grades (%) ([3]; Fasting (n=31), 150 mg daily): 3 (10) n (%)
Hypophosphatemia, Grade 3 (%) ([3]; Fasting (n=31), 150 mg daily): 1 (3) n (%)
Myalgia, All grades (%) ([3]; Fasting (n=31), 150 mg daily): 6 (19) n (%)
Nausea, All grades (%) ([3]; Fasting (n=31), 150 mg daily): 10 (32) n (%)
Vomiting, All grades (%) ([3]; Fasting (n=31), 150 mg daily): 4 (13) n (%)
Weight loss, All grades (%) ([3]; Fasting (n=31), 150 mg daily): 5 (16) n (%)
Alopecia, All grades (%) ([3]; Fed (n=30), 150 mg daily): 1 (3) n (%)
Anorexia, All grades (%) ([3]; Fed (n=30), 150 mg daily): 13 (43) n (%)
Diarrhea, All grades (%) ([3]; Fed (n=30), 150 mg daily): 3 (10) n (%)
Dizziness, All grades (%) ([3]; Fed (n=30), 150 mg daily): 2 (7) n (%)
Dysgeusia, All grades (%) ([3]; Fed (n=30), 150 mg daily): 13 (43) n (%)
Fatigue, All grades (%) ([3]; Fed (n=30), 150 mg daily): 11 (37) n (%)
Fatigue, Grade 3 (%) ([3]; Fed (n=30), 150 mg daily): 1 (3) n (%)
Hyperglycemia, All grades (%) ([3]; Fed (n=30), 150 mg daily): 1 (3) n (%)
Hyperkalemia, All grades (%) ([3]; Fed (n=30), 150 mg daily): 1 (3) n (%)
Hyperkalemia, Grade 3 (%) ([3]; Fed (n=30), 150 mg daily): 1 (3) n (%)
Myalgia, All grades (%) ([3]; Fed (n=30), 150 mg daily): 7 (23) n (%)
Nausea, All grades (%) ([3]; Fed (n=30), 150 mg daily): 9 (30) n (%)
Neutropenia, All grades (%) ([3]; Fed (n=30), 150 mg daily): 1 (3) n (%)
Neutropenia, Grade 3 (%) ([3]; Fed (n=30), 150 mg daily): 1 (3) n (%)
Vomiting, All grades (%) ([3]; Fed (n=30), 150 mg daily): 3 (10) n (%)
Weight loss, All grades (%) ([3]; Fed (n=30), 150 mg daily): 2 (7) n (%)
anorexia, any grade, frequency [3, 8]: 36%
dysgeusia, any grade, frequency [3, 8]: 34%
fatigue, Grade 3, frequency [3, 8]: 5%
fatigue, any grade, frequency [3, 8]: 36%
hyperkalemia, Grade 3, frequency [3, 8]: 2%
hypophosphatemia, Grade 3, frequency [3, 8]: 2%
nausea, any grade, frequency [3, 8]: 31%
neutropenia, Grade 3, frequency [3, 8]: 2%
response rate ([4]; locally advanced BCC): 43%
response rate ([4]; metastatic BCC): 30%
objective responses (RECIST 1.1) (advanced solid tumors; [9]): no objective responses
patients with stable disease (advanced solid tumors; [9]): Nine
range of duration of stable disease (advanced solid tumors; patients with stable disease, longest in a patient with BCC): 8 to 152 weeks
AUC(0-t) (clinical [5]): 239 µg·h/mL
Biopharmaceutics Classification System class [6]: 2

CS(=O)(=O)CCNCc1ccc(-c2ccc3ncnc(Nc4ccc(OCc5cccc(F)c5)c(Cl)c4)c3c2)o1 [lapatinib]
increase in exposure (area-under-the-curve; AUC) with food [7]: 150%
